Data as given in PubChem BioAssay (NCI).
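Cultured in 96-well plates, cells were exposed to test compound for 48 hours across five concentrations. TGI: total growth inhibition.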

How the values were obtained:
Test in all cases: DTP human tumour cell line panel, 48 h
786-0 renal = test system: 786-0 renal
A498 renal = test system: A498 renal
A549 NSCLC = test system: A549 NSCLC
ACHN renal = test system: ACHN renal
CAKI-1 renal = test system: CAKI-1 renal
CCRF-CEM leukemia = test system: CCRF-CEM leukemia
COLO 205 colon = test system: COLO 205 colon
DLD-1 colon = test system: DLD-1 colon
DMS 114 small cell lung = test system: DMS 114 small cell lung
DMS 273 small cell lung = test system: DMS 273 small cell lung
HCC-2998 colon = test system: HCC-2998 colon
HCT-116 colon = test system: HCT-116 colon
HL-60(TB) leukemia = test system: HL-60(TB) leukemia
HOP-18 NSCLC = test system: HOP-18 NSCLC
HOP-62 NSCLC = test system: HOP-62 NSCLC
HOP-92 NSCLC = test system: HOP-92 NSCLC
HT29 colon = test system: HT29 colon
IGROV1 ovarian = test system: IGROV1 ovarian
K-562 leukemia = test system: K-562 leukemia
KM12 colon = test system: KM12 colon
KM20L2 colon = test system: KM20L2 colon
LOX IMVI melanoma = test system: LOX IMVI melanoma
LXFL 529 NSCLC = test system: LXFL 529 NSCLC
M14 melanoma = test system: M14 melanoma
MALME-3M melanoma = test system: MALME-3M melanoma
MOLT-4 leukemia = test system: MOLT-4 leukemia
NCI-H226 lung = test system: NCI-H226 lung
NCI-H23 lung = test system: NCI-H23 lung
NCI-H460 lung = test system: NCI-H460 lung
NCI-H522 lung = test system: NCI-H522 lung
OVCAR-3 ovarian = test system: OVCAR-3 ovarian
OVCAR-4 ovarian = test system: OVCAR-4 ovarian
OVCAR-8 ovarian = test system: OVCAR-8 ovarian
RPMI-8226 leukemia = test system: RPMI-8226 leukemia
SF-268 CNS = test system: SF-268 CNS
SF-295 CNS = test system: SF-295 CNS
SF-539 CNS = test system: SF-539 CNS
SK-MEL-28 melanoma = test system: SK-MEL-28 melanoma
SK-MEL-5 melanoma = test system: SK-MEL-5 melanoma
SK-OV-3 ovarian = test system: SK-OV-3 ovarian
SN12C renal = test system: SN12C renal
SNB-19 CNS = test system: SNB-19 CNS
SNB-75 CNS = test system: SNB-75 CNS
SNB-78 CNS = test system: SNB-78 CNS
SR leukemia = test system: SR leukemia
SW-620 colon = test system: SW-620 colon
TK-10 renal = test system: TK-10 renal
U251 CNS = test system: U251 CNS
UACC-257 melanoma = test system: UACC-257 melanoma
UACC-62 melanoma = test system: UACC-62 melanoma
UO-31 renal = test system: UO-31 renal
XF 498 CNS = test system: XF 498 CNS
EKVX NSCLC = test system: EKVX NSCLC
M19-MEL melanoma = test system: M19-MEL melanoma
RXF 393 renal = test system: RXF 393 renal
SK-MEL-2 melanoma = test system: SK-MEL-2 melanoma

Measured: TGI

COC(=O)C1=CC2C(=O)OC1CC2C#N (stereo unspecified)
not listed: EKVX NSCLC | M19-MEL melanoma | RXF 393 renal | SK-MEL-2 melanoma
> 100 µM: all other assays above

O=C(c1ccccc1)c1cccc(C(=O)c2ccccc2)c1
not listed: HL-60(TB) leukemia | KM20L2 colon
> 100 µM: all other assays above
